Data taken from patent publication US6974816B2, “Combination for the treatment of endothelial damage” (Licentia Ltd., priority 2001, dated 2005).
Like-named read-outs stand apart in the source and are kept apart here.

Key:
[1] = system: left anterior descending coronary artery injured by overdilatation and denudation; conditions: after PTCA, versus controls without RPR101511A; cited from earlier work
[2] = system: CD31-positive cells (endothelium) of the transfected vessel segment; assay: Luminal endothelial cell coverage (CD31-positive cells) in transverse vessel sections; format: in vivo, New Zealand White rabbits
Method: Animals from the 8 groups are also analyzed with regard to luminal endothelial cell coverage from transverse vessel sections. This variable is determined by analysis of the percentage of the luminal surface that is covered by CD31-positive cells (CD31 is an endothelium-specific antibody from DAKO).
To investigate the mechanism underlying the observed beneficial effect of the combination therapy, the extent of endothelialization and the number of smooth muscle cells at the transfected vessel segment are analyzed (see Table 1). At the three-week time point, no difference in endothelial cell coverage is observed between the groups, although a trend towards an increased endothelial cell coverage in the combination group is seen (P=0.088). However, at the six-week time point, both groups that have received VEGF-C gene transfer display an increase in endotheilialization as compared to the control group. […] As shown in Table 4 (see below), the cell number is reduced by 52% (P<0.05) in the combination group as compared to control animal.
Three hours before euthanasia, animals receive an i.v. injection of 50 mg 5-bromo-2′-deoxyuridine (BrdU; Zymed Laboratories, San Francisco, Calif., USA) dissolved in 40% ethanol. After euthanasia, the transferred vessel segment is removed, flushed gently with saline, and divided into 4 parts of equal length. […]

[3] = for Plasma STI571 concentration, day 3 peak: 10 mg/kg/d oral in two daily doses; for Plasma STI571 concentration, day 3 peak / Plasma STI571 concentration, day 10 peak / Plasma STI571 concentration, day 21 peak: 2 h after drug delivery; for Plasma STI571 concentration, day 42: 3 weeks after last dose; for Plasma STI571 concentration, day 3 nadir / Plasma STI571 concentration, day 10 nadir / Plasma STI571 concentration, day 21 nadir: immediately before next administration
Method: The drug, or control (=sterile water) is administered with an oro-gastric sond on trained, unsedated animals 1 h before the gene transfer and is repeated every 12 h thereafter for the following three weeks.
Blood sampling, […] with catheterizations or euthanasia, is performed under slight Fluanisone/Fentanyl sedation. […] The specimen is stored in heparinized tubes shielded from light and plasma is isolated by centrifugation within 2 h and stored at −70° C. STI concentration is determined by high-performance liquid chromatography
For HPLC, plasma proteins are precipitated by the addition of an equal volume of acetonitrile. After 20 to 30 min at room temperature, the precipitated proteins are removed by centrifugation (10,000 g, 5 min) and the supernatants are analyzed by reversed-phase HPLC.
HPLC is performed on Merck-Hitachi LaChrom® equipment. 100 μl of the supernatants are injected onto a Nucleosil® 100-5 C18 column (C-18 modified silica Gel, Macherey & Nagel) protected by a 20 mm guard column of the same material. The sample is eluted with a gradient of acetonitrile in water at a flow rate of 1 ml/min; after 5 min at 10% v/v acetonitrile, the concentration of acetonitrile is increased to 75% v/v over a period of 15 min. The column is prepared for the next sample by washing for 5 min with 75% v/v acetonitrile, returning to 10% acetonitrile over 5 min and 5 min reequilibration. The mobile phase contains 0.05% v/v trifluoroacetic acid. The eluent is monitored using UV absorbance at a wavelength of 265 nm. […] The concentration of the compound is determined by the external standard method using peak heights. […] The calibration standards are processed as above.

[4] = system: intimal and medial smooth muscle cells; assay: BrdU labelling of dividing smooth muscle cells; format: in vivo, New Zealand White rabbits; conditions: 6-week endpoint; mean ± SEM
Method: (§1) Three hours before euthanasia, animals receive an i.v. injection of 50 mg 5-bromo-2′-deoxyuridine (BrdU; Zymed Laboratories, San Francisco, Calif., USA) dissolved in 40% ethanol. After euthanasia, the transferred vessel segment is removed, flushed gently with saline, and divided into 4 parts of equal length. The proximal part is snap-frozen in liquid nitrogen and stored at −70° C. The next part is immersion-fixed in 4% paraformaldehyde/15% sucrose (pH 7.4) for 4 h, rinsed in 15% sucrose (pH 7.4) and embedded in paraffin. The 2nd most distal part is fixed in 70% ethanol overnight and embedded in paraffin. The distal part is fixed in […]/PBS (pH 7.4) for 10 minutes, rinsed in PBS, embedded in OCT compound (Miles) and stored at −70° C. The distal segments from 3 week end-point animals are stained for β-galactosidase activity in X-Gal staining solution at +37° C. for 16 h, followed by fixation similar to that for the second segment. Paraffin sections are used for the detection of endothelium (CD31, DAKO, 1:50), smooth muscle cells (HHF, DAKO, 1:50), macrophages (RAM-11, DAKO, 1:50), and BrdU positive cells (Bu20a, DAKO, 1:50). Controls for immunostainings include incubations with class- and species-matched immunoglobulins and omission of primary antibodies. Morphometry is performed with Leica Q5001lW software with a stereomicroscope connected to a digital camera (Leica).

[5] = system: intimal and medial smooth muscle cells; assay: Intimal and medial smooth muscle cell number; format: in vivo, New Zealand White rabbits; conditions: 6-week endpoint; mean ± SEM
Method: as §1

[6] = rabbit, in vivo
Description: (§2) The cohort groups are also characterized with regard to animal weights, weight changes, extent of balloon injury (IEL damage), blood lipid profiles and basic hematologic parameters.

[7] = rabbit, in vivo; remark: listed apart in the source
Description: as §2
(§3) Blood samples are drawn for complete blood count at the time of euthanasia from randomly selected animals (n=3/group) in the 3-week endpoint cohort.

arterial intima = conditions: after re-injury of the arterial intima; cited from earlier work
[8] = Complete blood count (hematological parameters); conditions: 3-week endpoint; mean ± SEM
Description: as §2, §3

**Q.** For `COc1cc2ncc(-c3ccsc3)nc2cc1OC.Cl` [RPR101511A, 6,7-di-methoxy-2-thiophen-3-yl-quinoxaline hydrochloride], which total intima/media ratio [1] is on record?
**A.** The total intima/media ratio was “significant decrease”.

**Q.** For `Cc1ccc(NC(=O)c2ccc(CN3CCN(C)CC3)cc2)cc1Nc1nccc(-c2cccnc2)n1` [STI571, N-{5-[4-(4-methyl-piperazino-methyl)-benzoylamido]-2-methylphenyl}-4-(3-pyridyl)-2-pyrimidine-amine], which “CD31 positive cell coverage (% of luminal circumference), mean” value ([2]; 3-week endpoint) is on record?
**A.** The value was 33.7 % of luminal circumference.

**Q.** And the “CD31 positive cell coverage (% of luminal circumference), mean” value ([2]; 6-week endpoint)?
**A.** The value was 60.2 % of luminal circumference.

**Q.** And the “Plasma STI571 concentration, day 3 peak” value ([3]; LacZ transfected animals)?
**A.** The value was 10.27 ± 1.28 µM.

**Q.** And the “Plasma STI571 concentration, day 42” value ([3]; LacZ transfected animals)?
**A.** Its value is 0.04 ± 0.01 µM.

**Q.** And the “Plasma STI571 concentration, day 10 peak” value ([3]; LacZ transfected animals)?
**A.** The value was 16.63 ± 1.99 µM.

**Q.** And the “Plasma STI571 concentration, day 21 peak” value ([3]; LacZ transfected animals)?
**A.** Its value is 13.18 ± 1.65 µM.

**Q.** What about the “Plasma STI571 concentration, day 3 nadir” value ([3]; LacZ transfected animals) of the same molecule?
**A.** The value was 3.57 ± 0.74 µM.

**Q.** What about the “Plasma STI571 concentration, day 10 nadir” value ([3]; LacZ transfected animals) of the same molecule?
**A.** Its value is 5.16 ± 1.89 µM.

**Q.** And the “Plasma STI571 concentration, day 21 nadir” value ([3]; LacZ transfected animals)?
**A.** The value was 3.86 ± 1.02 µM.

**Q.** And the “Plasma STI571 concentration, day 3 peak” value ([3]; VEGF-C transfected animals)?
**A.** The value was 11.08 ± 1.10 µM.

**Q.** And the “Plasma STI571 concentration, day 42” value ([3]; VEGF-C transfected animals)?
**A.** Its value is 0.05 ± 0.01 µM.

**Q.** What about the “Plasma STI571 concentration, day 10 peak” value ([3]; VEGF-C transfected animals) of the same molecule?
**A.** The value was 14.26 ± 1.26 µM.

**Q.** What about the “Plasma STI571 concentration, day 21 peak” value ([3]; VEGF-C transfected animals) of the same molecule?
**A.** Its value is 13.58 ± 1.95 µM.

**Q.** What about the “Plasma STI571 concentration, day 3 nadir” value ([3]; VEGF-C transfected animals) of the same molecule?
**A.** Its value is 3.11 ± 1.13 µM.

**Q.** And the “Plasma STI571 concentration, day 10 nadir” value ([3]; VEGF-C transfected animals)?
**A.** Its value is 2.41 ± 0.43 µM.

**Q.** What about the “Plasma STI571 concentration, day 21 nadir” value ([3]; VEGF-C transfected animals) of the same molecule?
**A.** The value was 2.95 ± 0.90 µM.

**Q.** And the “BrdU positive SMC (%), intima” value [4]?
**A.** The value was 0.57 ± 0.13%.

**Q.** And the “BrdU positive SMC (%), media” value [4]?
**A.** The value was 0.39 ± 0.08%.

**Q.** And the “Number of SMC, intima” value [5]?
**A.** Its value is 1471 ± 287.

**Q.** And the “Number of SMC, media” value [5]?
**A.** Its value is 2403 ± 381.

**Q.** And the “weight” value [6]?
**A.** The value was 2462 ± 90 g.

**Q.** And the “Bands (%)” value [7]?
**A.** Its value is 0 ± 0%.

**Q.** And the “Hct (%)” value [7]?
**A.** The value was 31 ± 1.2%.

**Q.** And the “MCH” value [7]?
**A.** The value was 21 ± 0.8 pg.

**Q.** What about the “MCV” value [7] of the same molecule?
**A.** Its value is 64 ± 2.0 fL.

**Q.** What about the “basophiles (%)” value [7] of the same molecule?
**A.** Its value is 0 ± 0%.

**Q.** And the “eosinophiles (%)” value [7]?
**A.** Its value is 3.4 ± 1.4%.

**Q.** What about the “lymphocytes (%)” value [7] of the same molecule?
**A.** The value was 67.4 ± 4.1%.

**Q.** What about the “monocytes (%)” value [7] of the same molecule?
**A.** The value was 2.4 ± 0.7%.

**Q.** What about the “neutrophils (%)” value [7] of the same molecule?
**A.** The value was 26.8 ± 2.7%.

**Q.** What about the “smooth muscle proliferation and lesion formation” value (arterial intima) of the same molecule?
**A.** Its value is “inhibit smooth muscle proliferation and leasion formation”.

**Q.** And the “Hb” value [8]?
**A.** Its value is 103 ± 3.6 g/L.

**Q.** And the “RBC count (× 10^12/l)” value [8]?
**A.** Its value is 4.9 ± 0.2 × 10^12/l.

**Q.** And the “WBC count (× 10^9/l)” value [8]?
**A.** The value was 4.6 ± 0.6 × 10^9/l.
